{"source": "paper PMC11984924", "about": "“Dipeptidic Phosphonates: Potent Inhibitors of Pseudomonas aeruginosa Elastase B Showing Efficacy in a Murine Keratitis Model” (Advanced Science, 2025)", "biological_target": "T1, hERG potassium channel (Homo sapiens, UniProt Q12809)", "T1 construct": "Eurofins Cerep SA (CRO)", "T1 sequence (Q12809 whole entry)": "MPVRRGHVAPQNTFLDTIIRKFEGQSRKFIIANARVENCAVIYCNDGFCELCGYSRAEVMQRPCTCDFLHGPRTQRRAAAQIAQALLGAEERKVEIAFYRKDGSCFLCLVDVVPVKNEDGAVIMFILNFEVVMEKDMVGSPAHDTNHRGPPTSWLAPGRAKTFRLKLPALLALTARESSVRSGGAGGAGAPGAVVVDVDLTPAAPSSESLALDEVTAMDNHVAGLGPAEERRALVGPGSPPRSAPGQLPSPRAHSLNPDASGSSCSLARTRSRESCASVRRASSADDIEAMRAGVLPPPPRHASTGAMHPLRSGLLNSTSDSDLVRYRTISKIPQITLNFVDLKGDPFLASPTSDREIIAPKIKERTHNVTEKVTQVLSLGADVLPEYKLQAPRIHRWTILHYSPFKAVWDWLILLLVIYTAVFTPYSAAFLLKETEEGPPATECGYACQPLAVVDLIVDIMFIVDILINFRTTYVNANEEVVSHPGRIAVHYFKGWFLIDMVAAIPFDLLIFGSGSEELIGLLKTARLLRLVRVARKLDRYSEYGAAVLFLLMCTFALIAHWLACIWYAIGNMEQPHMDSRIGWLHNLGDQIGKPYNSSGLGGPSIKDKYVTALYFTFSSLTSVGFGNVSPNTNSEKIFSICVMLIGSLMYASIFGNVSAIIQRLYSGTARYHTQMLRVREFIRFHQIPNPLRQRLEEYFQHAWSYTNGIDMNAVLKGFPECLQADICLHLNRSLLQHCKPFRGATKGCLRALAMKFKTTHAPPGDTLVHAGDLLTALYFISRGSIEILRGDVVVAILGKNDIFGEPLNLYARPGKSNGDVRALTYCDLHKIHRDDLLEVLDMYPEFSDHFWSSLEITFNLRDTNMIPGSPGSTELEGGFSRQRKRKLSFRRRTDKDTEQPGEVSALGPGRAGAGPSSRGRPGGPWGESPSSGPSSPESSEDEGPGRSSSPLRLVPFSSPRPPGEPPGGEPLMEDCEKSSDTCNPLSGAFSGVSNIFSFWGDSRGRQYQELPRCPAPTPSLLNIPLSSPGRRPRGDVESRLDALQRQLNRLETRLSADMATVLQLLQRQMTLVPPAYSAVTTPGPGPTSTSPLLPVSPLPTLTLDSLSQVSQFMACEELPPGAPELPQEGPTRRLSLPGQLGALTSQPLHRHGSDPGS", "assay": "SafetyScreen44: hERG binding", "from_the_text": "Moreover, we explored the safety profile of frontrunner (R)‐30 in more detail in order to detect additional crucial off‐target interactions. For this purpose, we employed the SafetyScreen44 in vitro panel comprising selected binding, inhibition and uptake assays.^[ [35] ^] The panel is a specialized pharmacological profiling tool that tests compounds against 44 key molecular targets, aiming to identify potential safety risks early in drug discovery. […]\nThe off-target Safety Screen44TM was performed by the CRO Eurofins Cerep SA (Celle-\nL'Evescault, France) according to their protocols.[13] […]\nMMP-1 MMP-2 MMP-3 TACE (ADAM17)\nCompound [% inhibition at [% inhibition at [% inhibition at [% inhibition at 100"}
{"smiles": "CC(=O)c1ccc(NC(=O)[C@@H](NC(=O)[C@@H](CC(C)C)P(=O)(O)O)C(C)C)cc1", "note": "[(R)‐30]", "values": [{"measurement": "inhibition at 100 µM", "value": 79.4, "unit": "%"}]}
